In patent publication US9662305B2 (REVIVE THERAPEUTICS INC., priority 2012, dated 2017):

Legend:
patients = details: febuxostat 80 mg/day; cited from earlier work
[1] = tested on: subjects with acute gout flares; experiment: Open-label, active-controlled clinical trial in acute gout flares; details: for proportion of subjects with ≧50% reduction in target joint pain score from baseline at 72 hours post-dose: PI-NRS
Description: The primary efficacy endpoint is the proportion of patients who responded to treatment. Treatment responders are defined as a ≧50% reduction in target joint pain score from baseline at 72 hours post-dose without using rescue drug. The target joint pain score is an 11-point Pain Intensity Numeric Rating Scale (PI-NRS) used to assess joint pain intensity while experiencing a gout flare on a scale from 0 (no pain) to 10 (worst possible pain).

[2] = tested on: mouse peritoneal macrophages; experiment: MSU crystal-induced cytokine release from mouse peritoneal macrophages
Description: Male C57/BL/6 mice were injected intraperitoneally with 4% thioglycollate solution and the macrophages collected by peritoneal lavage 3 days later.^57 The cells were plated at a density of 7×10^5 cells in 12-well dishes and non-adherent cells were removed after 3 hours. The cells were cultured in RPMI containing 10% FCS, sodium pyruvate, penicillin/streptomycin and L-glutamine. […] The concentration of IL-1β in the supernatant was determined with an R&D systems Quantikine mouse immunoassay.

Male C57/BL/6 mice = experiment: Monosodium urate crystal-induced peritoneal inflammation in mice; type: in vivo, mouse; details: for decrease of mean neutrophil influx for every increase of 1 μmol/kg of the drug: single drug i.p., MSU crystals 0.5 mg i.p., logarithmic model
Description: Colchicine was dissolved in PBS and administered at a dose of 0.05, 0.5 and 5 μmol/kg in a similar fashion. […] The mice were euthanised after 6 hours with CO2 and the peritoneal cells removed by lavage with 10 mL of cold PBS. The lavage fluid was analysed for neutrophil infiltration using a cytospin and Diff-Quick staining. The concentrations of IL-1β and IL-6 in the lavage supernatants was determined using an R&D Systems Quantikine mouse immunoassay.

hyperuricaemic mice = experiment: Hyperuricaemic (potassium oxonate) mice: serum and urinary uric acid, urinary creatinine; type: in vivo, mouse
Description: A total of 45 C57/Black 6 mice in 9 groups (n=5) were studied for a period of one week. The drugs were dissolved or dispersed in distilled water immediately prior to dosing and administered in a volume of 15 mL/kg by gastric gavage. The volume of drug administered was based on the body weight determined on the day of dosing. […] Whole blood and urine samples were collected 1 h after final drug administration on the seventh day. […] The serum and urine were stored at −80° C. until assayed. The uric acid levels in serum and urine were determined by the phosphotungstic acid method.^54 The creatinine levels in serum were determined spectrophotometrically using standard diagnostic kits.

THP-1 cells = THP-1 cells stimulated with lipopolysaccharide; cited from earlier work

Which “patients who previously failed to normalise uric acid levels (<360 μmol/L) on allopurinol and also failed” value (patients) does the source give for `Cc1nc(-c2ccc(OCC(C)C)c(C#N)c2)sc1C(=O)O` [febuxostat] here?
The value was 59%.

With `COc1cc2c(c(OC)c1OC)-c1ccc(OC)c(=O)cc1[C@@H](NC(C)=O)CC2` [colchicine] as the molecule, how does the “proportion of subjects with ≧50% reduction in target joint pain score from baseline at 72 hours post-dose” value ([1]; Arm C, 1.8 mg, 5/12 subjects) read?
The value was 42%.

And the “related serious adverse events” value ([1]; any of the treatment arms, seven-day treatment period)?
Its value is “No related serious adverse events”.

What about the “decrease of average MSU crystal-induced IL-1β production for every increase of 1 μmol/kg” value ([2]; colchicine alone, logarithmic model) of the same molecule?
The value was 29.6%.

And the “decrease of mean neutrophil influx for every increase of 1 μmol/kg of the drug” value (Male C57/BL/6 mice; 6 hours)?
Its value is 18.3%.

With `Oc1ncnc2[nH]ncc12` [allopurinol] as the molecule, how does the “effect on serum urate” value (hyperuricaemic mice; allopurinol 5 mg/kg/day, 7 days, to a level below normal baseline) read?
The value was “highly significant (p<0.001) drop in serum urate”.

And the “effect on urinary uric acid” value (hyperuricaemic mice; allopurinol 5 mg/kg/day, level still below normal baseline)?
The value was “highly significant (p<0.001) increase in urinary uric acid”.

Which “proportion of subjects with ≧50% reduction in target joint pain score from baseline at 72 hours post-dose” value ([1]; Arm A, 900 mg, 2/8 subjects) does the source give for `CC(C)(S)C(=O)N[C@@H](CS)C(=O)O` [bucillamine, N-(2-mercapto-2-methylpropionyl)-L-cysteine] here?
Its value is 25%.

And the “proportion of subjects with ≧50% reduction in target joint pain score from baseline at 72 hours post-dose” value ([1]; Arm B, 1,800 mg, 6/9 subjects)?
The value was 67%.

What about the “use of rescue medication” value ([1]; Arm B, 1,800 mg, all subjects, seven-day treatment period) of the same molecule?
The value was “completed the treatment period without the use of rescue medication”.

What about the “release of TNF-α, IL-1β and IL-8” value (THP-1 cells) of the same molecule?
The value was “attenuated”.

What about the “decrease in average IL-1β cytokine production with each additional 1 μmol/kg increase” value ([2]; MSU crystals 50 μg/mL, 6 hours) of the same molecule?
The value was 30.7 pg/mL.

What about the “decrease in average IL-6 cytokine production with each additional 1 μmol/kg increase” value ([2]; MSU crystals 50 μg/mL, 6 hours) of the same molecule?
Its value is 13.7 pg/mL.

What about the “decrease in average MSU crystal-induced IL-1β production” value ([2]; addition of bucillamine 10 μmol/kg to colchicine) of the same molecule?
Its value is 65.0%.

What about the “release of IL-1β and IL-6 into the peritoneal cavity” value (Male C57/BL/6 mice; after injection of monosodium urate crystals, mouse) of the same molecule?
Its value is “attenuated”.

And the “effect of addition of bucillamine on average neutrophil influx” value (Male C57/BL/6 mice; bucillamine 10 μmol/kg added to colchicine, MSU crystals i.p., 6 hours)?
Its value is “highly significant (p<0.001) decrease in average neutrophil influx”.

And the “decrease of mean neutrophil influx for every increase of 1 μmol/kg of the drug” value (Male C57/BL/6 mice; 6 hours)?
Its value is 5.15%.

What about the “increase of mean urinary uric acid for each increase of 1 mg/kg/day” value (hyperuricaemic mice; bucillamine alone, 7 days, dose-response slope) of the same molecule?
The value was 0.079 mg/dL.

What about the “reduction of mean serum urate for each increase of 1 mg/kg/day” value (hyperuricaemic mice; bucillamine alone, gastric gavage, 7 days, dose-response slope) of the same molecule?
The value was 0.0067 mg/dL.
